Test results from patent publication US6833456B2, “Indolyl-urea derivatives of thienopyridines useful as antiangiogenic agents, and methods for their use” (Agouron Pharmaceuticals, Inc., priority 2002, dated 2004).
Values joined by “and” are separate entries in the source; they are usually repeats but may differ in a detail not shown here. Equal values may be shown once.

Experiments:
KDR (VEGFR2) = molecular target: T1, KDR (VEGFR2) (Homo sapiens, UniProt P35968); test: KDR (VEGFR2) phosphorylation in PAE-KDR cells assay; format: cell-based; conditions: PAE cells overexpressing human KDR, VEGF stimulated; read-out: PAE KDR autophos IC50
T1 construct: expressed in transfected cells; host or cells: porcine aorta endothelial (PAE) cells
T1 sequence (P35968 20-1356): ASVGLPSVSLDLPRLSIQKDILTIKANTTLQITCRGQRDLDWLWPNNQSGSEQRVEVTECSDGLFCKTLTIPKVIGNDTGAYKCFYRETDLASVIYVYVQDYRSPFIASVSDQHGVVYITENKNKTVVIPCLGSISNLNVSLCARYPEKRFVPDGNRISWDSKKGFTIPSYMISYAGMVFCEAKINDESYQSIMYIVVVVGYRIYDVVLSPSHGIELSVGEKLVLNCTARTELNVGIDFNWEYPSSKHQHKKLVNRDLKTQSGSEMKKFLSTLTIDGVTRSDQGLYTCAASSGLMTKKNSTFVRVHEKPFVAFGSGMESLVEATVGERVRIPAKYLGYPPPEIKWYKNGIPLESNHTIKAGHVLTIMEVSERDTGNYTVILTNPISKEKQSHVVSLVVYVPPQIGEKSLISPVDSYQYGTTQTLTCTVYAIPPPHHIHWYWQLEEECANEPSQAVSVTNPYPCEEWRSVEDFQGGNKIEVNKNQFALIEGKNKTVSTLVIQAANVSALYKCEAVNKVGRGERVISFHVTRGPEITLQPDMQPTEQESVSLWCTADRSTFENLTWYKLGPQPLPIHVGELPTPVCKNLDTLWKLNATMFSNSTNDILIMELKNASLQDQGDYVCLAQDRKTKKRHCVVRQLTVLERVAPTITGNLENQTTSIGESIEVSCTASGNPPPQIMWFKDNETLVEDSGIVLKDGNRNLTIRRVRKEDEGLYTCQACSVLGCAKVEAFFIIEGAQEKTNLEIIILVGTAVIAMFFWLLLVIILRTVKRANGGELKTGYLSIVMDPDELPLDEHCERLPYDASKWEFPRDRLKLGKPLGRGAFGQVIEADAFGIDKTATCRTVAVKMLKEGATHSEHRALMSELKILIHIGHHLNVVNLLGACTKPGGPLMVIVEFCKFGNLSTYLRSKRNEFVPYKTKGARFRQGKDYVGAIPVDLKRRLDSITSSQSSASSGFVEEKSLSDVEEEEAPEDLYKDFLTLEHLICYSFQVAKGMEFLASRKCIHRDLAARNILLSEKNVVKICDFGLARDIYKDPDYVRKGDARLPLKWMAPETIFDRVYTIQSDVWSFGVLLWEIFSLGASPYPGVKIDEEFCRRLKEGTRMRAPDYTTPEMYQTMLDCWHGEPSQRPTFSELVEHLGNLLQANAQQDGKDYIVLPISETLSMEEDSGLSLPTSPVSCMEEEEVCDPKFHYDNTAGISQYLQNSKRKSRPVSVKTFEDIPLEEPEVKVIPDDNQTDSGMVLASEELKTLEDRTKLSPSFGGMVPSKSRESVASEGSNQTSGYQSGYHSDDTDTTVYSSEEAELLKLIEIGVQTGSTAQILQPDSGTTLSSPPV
Method in brief: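 PAE cells overexpressing human KDR, serum-starved 16 h (0.1% FBS), treated with compound 1 h at 37° C (0.5% DMSO), then stimulated 8 min with 500 ng/ml VEGF plus 2 mM Na3VO4. Lysate KDR phosphotyrosine measured by capture ELISA (anti-pY HRP, 450 nm); IC50 by four-parameter fit.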

HUVEC = test: bFGF HUVEC proliferation; format: cell-based, human; conditions: bFGF stimulated HUVEC
Mouse PK assay = format: in vivo, B6 female mice; conditions: po; for AUC / Cmax: female, B6, mouse, plasma, 50 mg/kg; for Cmax: p.o., read-out: Mouse Cmax, po ng-h/mL
Method in brief: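 Plasma levels were measured by HPLC with UV detection after acetonitrile precipitation, using extracted standards, in blood taken up to 4 h (0.5, 1, 2, 4 h) post-dose. Dosing: 50 mg/kg orally or intraperitoneally to two groups of four female B6 mice, vehicle PEG 400:acidified H2O 30:70 suspension.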

[1] = test system: human umbilical vein endothelial cells (HUVEC); test: HUVEC+VEGF proliferation assay; format: cell-based; conditions: VEGF 6 ng/mL, MTT
Method in brief: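 Proliferation driven by VEGF (final 6 ng/mL) was quantified by MTT reduction (A595) 72 h after stimulation. Passage 3-4 HUVEC were starved for 24 h in 1% FBS F12K and given test agent 1 h before VEGF, with DMSO at 0.1% final.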

SMILES | IC50 (KDR (VEGFR2)) | AUC (Mouse PK assay) | Cmax (Mouse PK assay) | Mouse Cmin, po (Mouse PK assay) | IC50 (HUVEC; Homo sapiens, HUVEC) | IC50 (HUVEC) | IC50 ([1]; 72 hours) | IC50 ([1]; Homo sapiens, HUVEC, 72 h)
COC[C@H]1CCCN1C(=O)c1cc2nccc(Nc3ccc4c(c3)cc(C)n4C(=O)NC3CC3)c2s1 [Example 1d, 5-[2-(2R-Methoxymethyl-pyrrolidine-1-carbonyl)-thieno[3,2-b]pyridin-7-ylamino]-2-methyl-indole-1-carboxylic acid cyclopropylamide] | 0.45 nM and 0.51 nM | 5070 ng·h/mL | 2820 ng/mL | 32 ng/mL | 24 nM | 23.4 nM | 0.56 nM | 
CNC(=O)n1c(C)cc2cc(Nc3ccnc4cc(C(=O)N5CCC[C@@H]5COC)sc34)ccc21 [Example 1b, 5-[2-(2R-Methoxymethyl-pyrrolidine-1-carbonyl)-thieno[3,2-b]pyridin-7-ylamino]-2-methyl-indole-1-carboxylic acid methylamide] | 0.28 nM and 0.25 nM | 78 ng·h/mL | 24 ng/mL | 5 ng/mL | 80 nM |  |  | 0.69 nM
Cc1cc2cc(Nc3ccnc4cc(-c5nccn5C)sc34)ccc2n1C(=O)NC1CC1 [Example 2d, 5-(2-[1-methyl-1H-imidazol-2-yl]thieno[3,2-b]pyridin-7-ylamino)-2-methylindole-1-carboxylic acid cyclopropylamide] |  | 457 ng·h/mL | 411 ng/mL | 0 ng/mL | 34 nM |  |  | 0.15 nM
Cc1cc2cc(Nc3ccnc4cc(C(=O)N5CC[C@H](O)C5)sc34)ccc2n1C(=O)NC1CC1 [Example 1k, 5-[2-(3S-Hydroxy-pyrrolidine-1-carbonyl)-thieno[3,2-b]pyridin-7-ylamino]-2-methyl-indole-1-carboxylic acid cyclopropylamide] | 2.1 nM and 5.4 nM and 4.74 nM | 18 ng·h/mL | 8 ng/mL | 0 ng/mL | 26.6 nM |  |  | 
CNC(=O)n1c(C)cc2cc(Nc3ccnc4cc(C(=O)N5CCC[C@@H]5CO)sc34)ccc21 [Example 1a, 5-[2-(2R-Hydroxymethyl-pyrrolidine-1-carbonyl)-thieno[3,2-b]pyridin-7-ylamino]-2-methyl-indole-1-carboxylic acid methylamide] | 1.06 nM | 1020 ng·h/mL | 526 ng/mL | 3 ng/mL | 59 nM |  |  | 0.91 nM
CNC(=O)n1c(C)cc2cc(Nc3ccnc4cc(C(=O)N5CC[C@@H](O)C5)sc34)ccc21 [Example 1n, 5-[2-(3R-Hydroxy-pyrrolidine-1-carbonyl)-thieno[3,2-b]pyridin-7-ylamino]-2-methyl-indole-1-carboxylic acid methylamide] | 4.01 nM and 2.77 nM | 12 ng·h/mL | 8 ng/mL | 0 ng/mL | 30.2 nM | 19.4 nM |  | 0.64 nM
Cc1cc2cc(Nc3ccnc4cc(C(=O)N5CCC[C@@H]5CO)sc34)ccc2n1C(=O)NC1CC1 [Example 1c, 5-[2-(2R-Hydroxymethyl-pyrrolidine-1-carbonyl)-thieno[3,2-b]pyridin-7-ylamino]-2-methyl-indole-1-carboxylic acid cyclopropylamide] |  | 616 ng·h/mL | 317 ng/mL | 7 ng/mL | 158 nM |  |  | 0.7 nM
CNC(=O)n1c(C)cc2cc(Nc3ccnc4cc(C(=O)N5CC[C@@H](OC)C5)sc34)ccc21 [Example 1l, 5-[2-(3R-Methoxy-pyrrolidine-1-carbonyl)-thieno[3,2-b]pyridin-7-ylamino]-2-methyl-indole-1-carboxylic acid methylamide] |  | 719 ng·h/mL | 504 ng/mL | 5 ng/mL | 6.1 nM |  |  | 0.3 nM

Second part, led by results:

IC50 (KDR (VEGFR2)) | AUC (Mouse PK assay) | Cmax (Mouse PK assay) | Mouse Cmin, po (Mouse PK assay) | SMILES | IC50 (HUVEC; Homo sapiens, HUVEC) | IC50 (HUVEC) | IC50 ([1]; 72 hours) | IC50 ([1]; Homo sapiens, HUVEC, 72 h)
0.76 nM and 0.51 nM | 138 ng·h/mL | 56 ng/mL | 4 ng/mL | Cc1cc2cc(Oc3ccnc4cc(C(=O)N5CC[C@H](O)C5)sc34)ccc2n1C(=O)NCCCO [Example 9l, 5-[2-(3S-Hydroxy-pyrrolidine-1-carbonyl)-thieno[3,2-b]pyridin-7-yloxy]-2-methyl-indole-1-carboxylic acid (3-hydroxy-propyl)-amide] | 37.6 nM |  |  | 0.27 nM
0.33 nM | 9480 ng·h/mL | 2320 ng/mL | 461 ng/mL | CCCNC(=O)n1c(C)cc2cc(Oc3ccnc4cc(C(=O)N5CC[C@H](O)C5)sc34)ccc21 [Example 9i, 5-[2-(3S-Hydroxy-pyrrolidine-1-carbonyl)-thieno[3,2-b]pyridin-7-yloxy]-2-methyl-indole-1-carboxylic acid propylamide] | 5 nM |  |  | 0.37 nM
0.28 nM and 0.5 nM and 0.53 nM | 2560 ng·h/mL | 1820 ng/mL | 47 ng/mL | CNC(=O)n1c(C)cc2c(F)c(Oc3ccnc4cc(C(=O)N5CCC[C@H]5CO)sc34)ccc21 [Example 5n, 4-Fluoro-5-[(2-{[(2S)-2-(hydroxymethyl)pyrrolidin-1-yl]carbonyl}thieno[3,2-b]pyridin-7-yl)oxy]-N,2-dimethyl-1H-indole-1-carboxamide] | 93 nM |  |  | 
0.86 nM and 0.35 nM and 0.34 nM | 5080 ng·h/mL | 3430 ng/mL | 32 ng/mL | CNC(=O)n1c(C)cc2cc(Oc3ccnc4cc(C(=O)N5CC[C@@H](OC)C5)sc34)ccc21 [Example 4j, 5-[2-(3R-Methoxy-pyrrolidine-1-carbonyl)-thieno[3,2-b]pyridin-7-yloxy]-2-methyl-indole-1-carboxylic acid methylamide] | 2.5 nM | 4.7 nM |  | 0.088 nM
0.45 nM and 0.19 nM | 31300 ng·h/mL | 10400 ng/mL | 1297 ng/mL | C#CCNC(=O)n1c(C)cc2cc(Oc3ccnc4cc(C(=O)N5CCC[C@@H]5CO)sc34)ccc21 [Example 8q, 5-[2-(2R-Hydroxymethyl-pyrrolidine-1-carbonyl)-thieno[3,2-b]pyridin-7-yloxy]-2-methyl-indole-1-carboxylic acid prop-2-ynylamide] | 95 nM |  |  | 0.19 nM
0.29 nM and 0.86 nM and 0.34 nM | 9530 ng·h/mL | 4540 ng/mL |  | CNC(=O)n1c(C)cc2cc(Oc3ccnc4cc(C(=O)N5CC[C@H](O)C5)sc34)ccc21 [Example 9g, 5-[2-(3S-Hydroxy-pyrrolidine-1-carbonyl)-thieno[3,2-b]pyridin-7-yloxy]-2-methyl-indole-1-carboxylic acid methylamide] | 45 nM | 40 nM |  | 
0.21 nM (2×) and 0.25 nM | 3640 ng·h/mL | 2110 ng/mL | 108 ng/mL | COC[C@@H]1CCCN1C(=O)c1cc2nccc(Oc3ccc4c(c3)cc(C)n4C(=O)NC3CC3)c2s1 [Example 4b, 5-(2-[(S)-2-(methoxymethyl)pyrrolidine-1-carbonyl]thieno[3,2-b]pyridin-7-yloxy)-2-methylindole-1-carboxylic acid cyclopropylamide] | 11.7 nM |  |  | 
 | 5540 ng·h/mL | 3790 ng/mL | 23 ng/mL | CNC(=O)n1c(C)cc2cc(Oc3ccnc4cc(C(=O)N5CCC[C@@H]5COC)sc34)ccc21 [Example 4e, 5-[2-(2R-Methoxymethyl-pyrrolidine-1-carbonyl)-thieno[3,2-b]pyridin-7-yloxy]-2-methyl-indole-1-carboxylic acid methylamide] | 14 nM |  |  | 0.6 nM
